In ChEMBL document CHEMBL1130492 (Bioorg Med Chem Lett, 1997):
pKi: −log10 of the molar value.

Columns and labels:
Canis familiaris [1] = organism: Canis familiaris; experiment: Percent of radioactive dose in urine and faeces excreted in 0-24 hr by dogs; assay type: ADME, organism-based, Canis lupus familiaris, Urine/Feces; conditions: dog, in vivo
Rattus norvegicus [2] = experiment: (§1) In vivo antipsychotic activity determined for dose ip by CAR (conditioned avoidance response) assay; assay type: functional
Rattus norvegicus [3] = organism: Rattus norvegicus; experiment: Percent of radioactive dose in urine and faeces excreted in 0-24 hr by rats; assay type: ADME, organism-based, Urine/Feces; conditions: in vivo
Rattus norvegicus [4] = organism: Rattus norvegicus; experiment: Percent of radioactive dose in urine and feces excreted in 0-24 hr by rats; assay type: ADME, organism-based; conditions: in vivo
Canis familiaris [5] = organism: Canis familiaris; experiment: Percent of radioactive dose in urine and feces excreted by 0-24 hr in dogs; assay type: ADME, organism-based, Canis lupus familiaris; conditions: dog, in vivo
Rattus norvegicus [6] = experiment: as §1; assay type: functional; design: unit not given here
[7] = biological target: D(2) dopamine receptor (Rattus norvegicus) (UniProt P61169); experiment: In vitro ability to displace Dopamine D2 receptor binding to rat striatal membranes in competition experiments against [3H]spiperone at 1 uM concentration; conditions: Striatum, Membrane
D(2) dopamine receptor (Rattus norvegicus), sequence (P61169 whole entry): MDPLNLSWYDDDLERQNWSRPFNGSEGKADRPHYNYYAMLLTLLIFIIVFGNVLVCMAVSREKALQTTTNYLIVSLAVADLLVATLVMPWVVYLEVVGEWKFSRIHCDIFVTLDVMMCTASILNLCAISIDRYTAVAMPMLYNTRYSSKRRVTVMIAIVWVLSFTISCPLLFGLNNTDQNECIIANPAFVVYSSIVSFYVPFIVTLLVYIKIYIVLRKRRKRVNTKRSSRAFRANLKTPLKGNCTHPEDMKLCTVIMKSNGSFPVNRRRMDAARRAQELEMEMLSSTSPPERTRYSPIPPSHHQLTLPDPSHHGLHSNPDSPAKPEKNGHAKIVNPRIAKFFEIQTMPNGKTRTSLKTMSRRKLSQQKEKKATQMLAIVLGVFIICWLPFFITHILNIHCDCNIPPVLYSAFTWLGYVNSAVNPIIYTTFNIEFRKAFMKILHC

[8] = biological target: T1, 5-hydroxytryptamine receptor 1A (Rattus norvegicus) (UniProt P19327); experiment: In vitro ability to displace serotonin 5-HT1A receptor binding to rat cerebral cortex in competition experiments against [3H]8-(hydroxy)dipropyl aminotetralin at 1 uM concentration; assay type: tissue-based
T1 sequence (whole entry): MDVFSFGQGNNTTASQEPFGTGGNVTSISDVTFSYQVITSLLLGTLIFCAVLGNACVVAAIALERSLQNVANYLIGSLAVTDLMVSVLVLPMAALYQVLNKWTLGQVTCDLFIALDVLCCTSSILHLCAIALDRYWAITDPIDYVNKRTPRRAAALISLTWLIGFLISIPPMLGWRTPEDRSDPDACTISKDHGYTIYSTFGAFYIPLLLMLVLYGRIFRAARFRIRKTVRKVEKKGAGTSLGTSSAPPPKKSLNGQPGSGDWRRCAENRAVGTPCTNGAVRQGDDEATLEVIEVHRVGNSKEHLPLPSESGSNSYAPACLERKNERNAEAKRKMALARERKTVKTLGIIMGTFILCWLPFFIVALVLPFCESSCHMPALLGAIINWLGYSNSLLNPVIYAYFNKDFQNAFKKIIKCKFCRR

[9] = biological target: Adrenergic receptor alpha-1 (Rattus norvegicus) (UniProt P15823+P23944+P43140); experiment: In vitro ability to displace Alpha-1 adrenergic receptor binding to rat cerebral cortex in competition experiments against [3H]prazosin at 1 µM, expressed as % inhibition.
D(2) dopamine receptor = D(2) dopamine receptor (Rattus norvegicus, UniProt P61169); experiment: In vitro ability to displace Dopamine D2 receptor binding to rat striatal membranes in competition experiments against 3H-spiperone, expressed as Ki; design: species or system Striatum, Membrane
D(2) dopamine receptor, sequence (P61169 whole entry): as the sequence (P61169 whole entry) above

Canis familiaris [10] = organism: Canis familiaris; experiment: Percent of radioactive dose in urine and feces excreted in 0-24 hr by dogs; NA is <10% inhibition at 1 uM for binding data; assay type: ADME, organism-based, Canis lupus familiaris; conditions: dog, in vivo
[11] = biological target: T2, Adrenergic receptor alpha-1 (Rattus norvegicus, UniProt P15823+P23944+P43140); experiment: In vitro ability to displace Alpha-1 adrenergic receptor binding to rat cerebral cortex in competition experiments against [3H]prazosin […], expressed as Ki.
T2 sequence (P15823 whole entry): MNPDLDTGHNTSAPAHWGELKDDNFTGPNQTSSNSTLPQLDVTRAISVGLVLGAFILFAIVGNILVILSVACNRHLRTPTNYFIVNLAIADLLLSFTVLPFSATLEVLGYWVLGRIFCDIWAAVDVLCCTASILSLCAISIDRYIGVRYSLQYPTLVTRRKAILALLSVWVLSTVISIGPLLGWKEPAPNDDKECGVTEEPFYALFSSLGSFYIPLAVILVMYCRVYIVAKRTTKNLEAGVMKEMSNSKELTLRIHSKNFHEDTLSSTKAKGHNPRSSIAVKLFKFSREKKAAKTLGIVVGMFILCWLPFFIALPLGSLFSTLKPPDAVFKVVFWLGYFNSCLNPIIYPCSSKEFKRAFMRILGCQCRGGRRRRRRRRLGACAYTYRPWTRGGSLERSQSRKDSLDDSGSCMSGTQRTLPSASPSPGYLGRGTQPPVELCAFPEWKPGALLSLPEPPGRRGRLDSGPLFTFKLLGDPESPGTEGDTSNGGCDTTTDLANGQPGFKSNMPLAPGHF
T2 sequence (P23944 whole entry): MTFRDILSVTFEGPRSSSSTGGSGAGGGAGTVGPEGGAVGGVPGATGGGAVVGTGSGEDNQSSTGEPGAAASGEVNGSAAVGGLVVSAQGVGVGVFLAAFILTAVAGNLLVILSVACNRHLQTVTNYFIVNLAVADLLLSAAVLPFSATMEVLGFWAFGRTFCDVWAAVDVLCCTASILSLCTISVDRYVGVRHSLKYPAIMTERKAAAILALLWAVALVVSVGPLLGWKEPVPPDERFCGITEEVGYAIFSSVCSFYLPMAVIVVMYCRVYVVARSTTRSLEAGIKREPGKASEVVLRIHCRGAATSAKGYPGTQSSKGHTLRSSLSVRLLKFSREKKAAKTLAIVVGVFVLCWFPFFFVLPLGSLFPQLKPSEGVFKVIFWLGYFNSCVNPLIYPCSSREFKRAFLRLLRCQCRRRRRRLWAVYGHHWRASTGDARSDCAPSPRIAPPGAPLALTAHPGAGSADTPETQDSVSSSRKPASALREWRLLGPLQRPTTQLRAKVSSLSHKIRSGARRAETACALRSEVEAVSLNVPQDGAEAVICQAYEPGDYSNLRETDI
T2 sequence (P43140 whole entry): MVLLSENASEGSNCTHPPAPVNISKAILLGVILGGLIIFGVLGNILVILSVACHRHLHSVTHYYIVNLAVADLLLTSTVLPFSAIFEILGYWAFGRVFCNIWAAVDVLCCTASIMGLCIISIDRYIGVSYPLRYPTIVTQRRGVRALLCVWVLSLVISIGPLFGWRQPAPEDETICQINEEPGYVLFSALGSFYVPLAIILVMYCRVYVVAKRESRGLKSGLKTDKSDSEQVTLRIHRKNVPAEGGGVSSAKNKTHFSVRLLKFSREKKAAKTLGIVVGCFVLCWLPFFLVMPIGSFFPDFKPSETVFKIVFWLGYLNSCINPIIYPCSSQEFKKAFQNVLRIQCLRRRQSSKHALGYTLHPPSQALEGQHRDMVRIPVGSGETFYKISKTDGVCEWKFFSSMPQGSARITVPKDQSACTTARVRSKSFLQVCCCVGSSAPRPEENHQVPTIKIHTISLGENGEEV

[12] = biological target: T3, 5-hydroxytryptamine receptor 1A (Rattus norvegicus, UniProt P19327); experiment: In vitro ability to displace serotonin 5-HT1A receptor binding to rat cerebral cortex in competition experiments against [3H]8-(hydroxy)dipropyl aminotetralin at 15 mg/kg concentration
T3 sequence (P19327 whole entry): T1 sequence (whole entry)

Rattus norvegicus [13] = organism: Rattus norvegicus; experiment: Percent of radioactive dose in urine and feces excreted in 0-24 hr by rats; NA is <10% inhibition at 1 uM for binding data; assay type: ADME, organism-based; conditions: in vivo
[14] = biological target: T2, Adrenergic receptor alpha-1; experiment: In vitro ability to displace Alpha-1 adrenergic receptor binding to rat cerebral cortex in competition experiments against [3H]-prazosin, expressed as Ki.
[15] = biological target: T3, 5-hydroxytryptamine receptor 1A; experiment: In vitro ability to displace serotonin 5-HT1A receptor binding to rat cerebral cortex in competition experiments against [3H]8-(hydroxy)dipropyl aminotetralin at 1 mg/kg concentration
Canis familiaris [16] = organism: Canis familiaris; experiment: Percent of radioactive dose in urine and feces excreted by 0-24 hr in dogs; NA is <10% inhibition at 1 uM for binding data; assay type: ADME, organism-based, Canis lupus familiaris; conditions: dog, in vivo

| Dose (Rattus norvegicus [4]) [%] | Dose (Canis familiaris [5]) [%] | pKi (D(2) dopamine receptor) | Ki [11] [nM] | pKi [12] | Dose (Rattus norvegicus [13]) [%] | SMILES | CAR (Rattus norvegicus [6]) | also measured |
| --- | --- | --- | --- | --- | --- | --- | --- | --- |
|  |  |  |  |  |  | CC(C)Oc1ccccc1N1CCN(Cc2cccc(C(=O)N3CCCCC3)c2)CC1 [MAZAPERTINE] |  | Dose (Canis familiaris [1]): 5%; CAR (Rattus norvegicus [2]): -92; Dose (Rattus norvegicus [3]): 4% |
| 13 | 3 |  |  |  |  | CC(C)Oc1cc(O)ccc1N1CCN(Cc2cccc(C(=O)N3CCCCC3)c2)CC1 | -10 |  |
| 11 | 8 |  |  |  |  | O=C(O)c1cccc(C(=O)N2CCCCC2)c1 | -3 | inhibition [7]: < 10%; inhibition [8]: < 10%; inhibition [9]: < 10% |
|  |  | 8.05 | 4 | 8.52 | < 2 | CC(C)Oc1ccccc1N1CCN(Cc2cccc(C(=O)N3CCCCC3O)c2)CC1 (stereo not given) | -64 | Dose (Canis familiaris [10]): < 2% |
| 3 | 3 | 7.96 |  |  |  | CC(C)Oc1ccccc1N1CCN(Cc2cccc(C(=O)N3CCC(O)CC3)c2)CC1 | -76 | Ki [14]: 3.6 nM; pKi [15]: 8.11 |
|  |  | 8.06 | 21 | 8.17 | < 2 | CC(C)Oc1ccccc1N1CCN(Cc2cccc(C(=O)N3CCCC(O)C3)c2)CC1 (stereo not given) | -96 | Dose (Canis familiaris [16]): < 2% |
